Like-named read-outs stand apart in the source and are kept apart here.

For one assay, the target named is ALPK1 (Homo sapiens (Human), UniProt Q96QP1). Nature of the assay: ALPK1 in vitro kinase assay (HTRF of TIFA phosphorylation). It is filed as biochemical. In general terms: In TR-FRET formats the signal depends on donor and acceptor labels being close together.
In assay [1] the test system is ALPK1-dependent NFκB reporter gene activation in HEK293 cells stably expressing an NF-kB reporter (G9 cells). Briefly: NFκB gene reporter alkaline phosphatase assay. It is filed as cell-based. Conditions: read-out: NFkB assay IC50. A digest of the protocol: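 Read-out: chromogenic pNPP turnover by NF-kB-driven alkaline phosphatase in G9 cells (HEK293, stable reporter). Compound pre-incubation 30 min before agonist D-glycero-D-manno-6-fluoro-heptose-1β-S-ADP. IC50 by four-parameter logistic regression.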

ALPK1, sequence (Q96QP1 whole entry): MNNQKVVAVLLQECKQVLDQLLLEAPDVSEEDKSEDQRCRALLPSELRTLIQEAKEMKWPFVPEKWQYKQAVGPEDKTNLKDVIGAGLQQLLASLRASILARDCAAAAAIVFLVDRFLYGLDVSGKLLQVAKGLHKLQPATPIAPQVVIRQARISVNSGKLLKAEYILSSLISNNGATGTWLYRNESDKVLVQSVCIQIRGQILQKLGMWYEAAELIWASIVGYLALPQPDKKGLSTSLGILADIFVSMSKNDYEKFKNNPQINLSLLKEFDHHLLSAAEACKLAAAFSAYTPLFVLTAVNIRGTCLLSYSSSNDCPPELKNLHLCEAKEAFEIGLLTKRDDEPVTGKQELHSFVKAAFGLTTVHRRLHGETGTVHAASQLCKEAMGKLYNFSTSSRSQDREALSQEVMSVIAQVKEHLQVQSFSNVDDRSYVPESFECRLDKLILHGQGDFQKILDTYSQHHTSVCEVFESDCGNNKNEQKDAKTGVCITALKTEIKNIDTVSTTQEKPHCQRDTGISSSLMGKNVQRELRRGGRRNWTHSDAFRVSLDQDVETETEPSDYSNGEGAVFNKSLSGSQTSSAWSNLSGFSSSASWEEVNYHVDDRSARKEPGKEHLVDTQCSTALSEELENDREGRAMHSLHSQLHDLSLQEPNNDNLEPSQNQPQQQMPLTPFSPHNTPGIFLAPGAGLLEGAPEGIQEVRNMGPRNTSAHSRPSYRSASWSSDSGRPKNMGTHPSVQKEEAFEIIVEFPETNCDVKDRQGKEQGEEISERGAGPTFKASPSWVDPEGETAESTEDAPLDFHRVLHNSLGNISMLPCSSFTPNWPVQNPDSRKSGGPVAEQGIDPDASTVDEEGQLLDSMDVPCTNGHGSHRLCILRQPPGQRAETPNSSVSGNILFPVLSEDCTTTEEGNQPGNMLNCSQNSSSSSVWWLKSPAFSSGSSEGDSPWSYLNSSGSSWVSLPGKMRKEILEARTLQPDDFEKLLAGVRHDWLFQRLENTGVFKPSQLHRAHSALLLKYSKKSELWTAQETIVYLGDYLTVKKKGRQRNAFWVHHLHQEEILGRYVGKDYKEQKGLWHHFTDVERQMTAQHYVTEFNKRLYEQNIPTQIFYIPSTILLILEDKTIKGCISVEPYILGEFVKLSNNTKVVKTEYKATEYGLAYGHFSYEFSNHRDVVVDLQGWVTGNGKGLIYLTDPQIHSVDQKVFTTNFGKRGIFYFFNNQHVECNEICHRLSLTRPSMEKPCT

With `C#C[C@](C)(c1ccc(Cl)cc1)c1csc(NC(=O)NC(C)(C)CO)n1` (stereo in doubt) [Example A293, 1-(4-(2-(4-chlorophenyl)but-3-yn-2-yl)thiazol-2-yl)-3-(1-hydroxy-2-methylpropan-2-yl)urea], the IC50 (usually the point on the concentration scale where inhibition reaches its midpoint) against ALPK1 was determined as 9360 nM; in assay [1] (Homo sapiens, HEK293), 8110 nM.

As for `COc1ccc(C(C)(C)c2csc(NC(=O)NCc3ccc(N4CCC(O)CC4)cc3)n2)cc1` [Example A139, 1-(4-(4-hydroxypiperidin-1-yl)benzyl)-3-(4-(2-(4-methoxyphenyl)propan-2-yl)thiazol-2-yl)urea], the IC50 on ALPK1 amounted to 261 nM; in assay [1] (Homo sapiens, HEK293) it was 1350 nM.

As to `CC(C)(c1ccc(Br)cc1)c1csc(NC(=O)NCc2ccnc(N3CCNCC3)c2)n1` [Example A181, 1-(4-(2-(4-bromophenyl)propan-2-yl)thiazol-2-yl)-3-((2-(piperazin-1-yl)pyridin-4-yl)methyl)urea], the IC50 at ALPK1 turned out to be 131 nM; in assay [1] (Homo sapiens, HEK293) it was 1520 nM.

For the molecule `C#C[C@@](C)(c1ccc(Br)cc1)c1csc(NC(=O)NCC(O)CO)n1` (stereo in doubt) [Example A278, 1-(4-(2-(4-bromophenyl)but-3-yn-2-yl)thiazol-2-yl)-3-(2,3-dihydroxypropyl)urea], the IC50 at ALPK1 was found to be 624 nM; in assay [1] (Homo sapiens, HEK293) it was 520 nM.

On to `CC(C)(c1ccc(Br)cc1)c1csc(NC(=O)NCc2ccc(N3CCNCC3)c(C(F)(F)F)c2)n1` [Example A049, 1-(4-(2-(4-bromophenyl)propan-2-yl)thiazol-2-yl)-3-(4-(piperazin-1-yl)-3-(trifluoromethyl)benzyl) urea], for which the IC50 was 119 nM against ALPK1 and 800 nM in assay [1] (Homo sapiens, HEK293).

As to `C#C[C@](C)(c1ccc(Cl)cc1)c1csc(NC(=O)NC(CO)CO)n1` (stereo in doubt) [Example A297, 1-(4-(2-(4-chlorophenyl)but-3-yn-2-yl)thiazol-2-yl)-3-(1,3-dihydroxypropan-2-yl)urea], the IC50 on ALPK1 was found to be 935 nM; in assay [1] (Homo sapiens, HEK293), 4390 nM.

On to `C#C[C@@](C)(c1ccc(Cl)cc1)c1csc(NC(=O)NC(CO)CO)n1` (stereo in doubt) [Example A298, 1-(4-(2-(4-chlorophenyl)but-3-yn-2-yl)thiazol-2-yl)-3-(1,3-dihydroxypropan-2-yl)urea], for which the IC50 against ALPK1 is 246 nM; in assay [1] (Homo sapiens, HEK293), 1150 nM.

For the molecule `COc1ccc(C(C)(C)c2csc(NC(=O)NCc3ccc(N4CCNCC4)c(OC(C)C)c3)n2)cc1` [Example A225, 1-(3-isopropoxy-4-(piperazin-1-yl)benzyl)-3-(4-(2-(4-methoxyphenyl)propan-2-yl)thiazol-2-yl)urea], the IC50 came to 108 nM on ALPK1 and 1050 nM in assay [1] (Homo sapiens, HEK293).

On to `C#C[C@@](C)(c1ccc(Cl)cc1)c1csc(NC(=O)N2CC(CO)C2)n1` [Example A258, (S)-N-(4-(2-(4-chlorophenyl)but-3-yn-2-yl)thiazol-2-yl)-3-(hydroxymethyl)azetidine-1-carboxamide], for which the IC50 on ALPK1 is 357 nM; in assay [1] (Homo sapiens, HEK293), 1330 nM.

Consider `CC(C)(c1ccc(Br)cc1)c1csc(NC(=O)NCc2cnc(N3CCN(CCO)CC3)nc2)n1` [Example A103, 1-(4-(2-(4-bromophenyl)propan-2-yl)thiazol-2-yl)-3-((2-(4-(2-hydroxyethyl)piperazin-1-yl)pyrimidin-5-yl)methyl)urea], for which the concentration for half-maximal inhibition (IC50) against ALPK1 was 97 nM; in assay [1] (Homo sapiens, HEK293) it was 6200 nM.

On to `CC(C)(c1ccc(Br)cc1)c1csc(NC(=O)NCc2ccc(NCCO)cc2)n1` [Example A108, 1-(4-(2-(4-bromophenyl)propan-2-yl)thiazol-2-yl)-3-(4-((2-hydroxyethyl)amino)ben-zyl)urea], for which the IC50 against ALPK1 is 244 nM; in assay [1] (Homo sapiens, HEK293), 820 nM.

`Cc1sc(NC(=O)NCc2ccc(N3CCNCC3)cc2)nc1C(C)(C)c1ccc(Br)cc1` [Example A030, 1-(4-(2-(4-bromophenyl)propan-2-yl)-5-methylthiazol-2-yl)-3-(4-(piperazin-1-yl)benzyl)urea]: the IC50 on ALPK1 was found to be 232 nM; in assay [1] (Homo sapiens, HEK293), 4110 nM.

As to `COc1ccc(C(C)(C)c2csc(NC(=O)NCc3ccc(N4CCNC(C)C4)c(C(N)=O)c3)n2)cc1` (centres unmarked) [Example A063, 5-((3-(4-(2-(4-methoxyphenyl)propan-2-yl)thiazol-2-yl)ureido)methyl)-2-(3-methylpiperazin-1-yl)benzamide], the IC50 against ALPK1 was determined as 29 nM; in assay [1] (Homo sapiens, HEK293), 2910 nM.

With `CC(C)(c1ccc(Br)cc1)c1csc(NC(=O)NCCS(C)(=O)=O)n1` [Example A066, 1-(4-(2-(4-bromophenyl)propan-2-yl)thiazol-2-yl)-3-(2-(methylsulfonyl)ethyl)urea], the IC50 against ALPK1 was 126 nM; in assay [1] (Homo sapiens, HEK293), 10500 nM.

Regarding `C#CC(C)(c1ccc(Cl)cc1)c1csc(NC(=O)N2CCC(N)CC2)n1` (centres unmarked) [Example A265, 4-amino-N-(4-(2-(4-chlorophenyl)but-3-yn-2-yl)thiazol-2-yl)piperidine-1-carboxamide], the 50% inhibitory concentration (IC50) against ALPK1 was determined as 4970 nM; in assay [1] (Homo sapiens, HEK293), 2900 nM.

For the molecule `COc1ccc(C(C)(C)c2csc(NC(=O)NCCCN3CCC(O)C3)n2)cc1` (centres unmarked) [Example A135, 1-(3-(3-hydroxypyrrolidin-1-yl)propyl)-3-(4-(2-(4-methoxyphenyl)propan-2-yl)thiazol-2-yl)urea], the IC50 on ALPK1 turned out to be 112 nM; in assay [1] (Homo sapiens, HEK293) it was 1240 nM.

As to `C#CC(C)(c1ccc(Cl)cc1)c1csc(NC(=O)NCCC#N)n1` (centres unmarked) [Example A024, 1-(4-(2-(4-chlorophenyl)but-3-yn-2-yl)thiazol-2-yl)-3-(2-cyanoethyl)urea], the IC50 on ALPK1 was 13 nM; in assay [1] (Homo sapiens, HEK293) it was 1250 nM.

Turning to `CCCN1CCC(NC(=O)c2ccc(CNC(=O)Nc3nc(C(C)(C)c4ccc(OC)cc4)cs3)cn2)CC1` [Example A115, 5-((3-(4-(2-(4-methoxyphenyl)propan-2-yl)thiazol-2-yl)ureido)methyl)-N-(1-propylpiperidin-4-yl)picolinamide], the IC50 against ALPK1 is 19 nM; in assay [1] (Homo sapiens, HEK293) it was 830 nM.

Regarding `CC(C)(c1ccc(Br)cc1)c1csc(NC(=O)NCc2cc(N3CCNCC3)ncn2)n1` [Example A094, 1-(4-(2-(4-bromophenyl)propan-2-yl)thiazol-2-yl)-3-((6-(piperazin-1-yl)pyrimidin-4-yl)methyl)urea], the IC50 on ALPK1 was determined as 73 nM; in assay [1] (Homo sapiens, HEK293), 1290 nM.

On to `CC(C)(c1ccc(Br)cc1)c1csc(NC(=O)NCCCN)n1` [Example A061, 1-(3-aminopropyl)-3-(4-(2-(4-bromophenyl)propan-2-yl)thiazol-2-yl)urea], for which the IC50 against ALPK1 worked out at 195 nM; in assay [1] (Homo sapiens, HEK293) it was 1990 nM.

For `CC(C)(c1ccc(F)cc1)c1csc(NC(=O)NCc2cnc(N3CCNCC3)nc2)n1` [Example A085, 1-(4-(2-(4-fluorophenyl)propan-2-yl)thiazol-2-yl)-3-((2-(piperazin-1-yl)pyrimidin-5-yl)methyl)urea], the half-inhibitory concentration (IC50) against ALPK1 amounted to 85 nM; in assay [1] (Homo sapiens, HEK293), 490 nM.

On to `COc1ccc(C(C)(C)c2csc(NC(=O)NCc3ccc(NCCN)cc3)n2)cc1` [Example A183, 1-(4-((2-aminoethyl)amino)ben-yzl)-3-(4-(2-(4-methoxyphenyl)propan-2-yl)thiazol-2-yl)urea], for which the IC50 is 52 nM against ALPK1 and 2310 nM in assay [1] (Homo sapiens, HEK293).

For `COc1ccc(C(C)(C)c2csc(NC(=O)NCCCN3CCNC(C)C3)n2)cc1` (centres unmarked) [Example A228, 1-(4-(2-(4-methoxyphenyl)propan-2-yl)thiazol-2-yl)-3-(3-(3-methylpiperazin-1-yl)propyl)urea], the IC50 against ALPK1 came to 100 nM; in assay [1] (Homo sapiens, HEK293), 3860 nM.

On to `C#C[C@](C)(c1ccc(Br)cc1)c1csc(NC(=O)NCCO)n1` [Example A161, (R)-1-(4-(2-(4-bromophenyl)but-3-yn-2-yl)thiazol-2-yl)-3-(2-hydroxyethyl)urea], for which the IC50 against ALPK1 was 68 nM; in assay [1] (Homo sapiens, HEK293), 550 nM.

With `C#C[C@](C)(c1ccc(F)cc1)c1csc(NC(=O)NCCS(N)(=O)=O)n1` [Example A284, 2-(3-(4-(2-(4-fluorophenyl)but-3-yn-2-yl)thiazol-2-yl)ureido)ethanesulfona-mide], the IC50 was 666 nM at ALPK1 and 2600 nM in assay [1] (Homo sapiens, HEK293).

As to `C#C[C@](C)(c1ccc(Cl)cc1)c1csc(NC(=O)NCCC(C)(C)O)n1` [Example A250, (R)-1-(4-(2-(4-chlorophenyl)but-3-yn-2-yl)thiazol-2-yl)-3-(3-hydroxy-3-methylbutyl)urea], the IC50 at ALPK1 was 417 nM; in assay [1] (Homo sapiens, HEK293), 1180 nM.

For the molecule `COc1ccc(C(C)(C)c2csc(NC(=O)NCCCO)n2)cc1` [Example A133, 1-(3-hydroxypropyl)-3-(4-(2-(4-methoxyphenyl)propan-2-yl)thiazol-2-yl)urea], the IC50 against ALPK1 worked out at 57 nM; in assay [1] (Homo sapiens, HEK293), 600 nM.

Turning to `O=C(NCCO)Nc1nc(C2(c3ccc(Br)cc3)CCC2)cs1` [Example A158, 1-(4-(1-(4-bromophenyl)cyclobutyl)thiazol-2-yl)-3-(2-hydroxyethyl)urea], the IC50 against ALPK1 came to 67 nM; in assay [1] (Homo sapiens, HEK293), 2860 nM.

For the molecule `CC(C)(c1ccc(Br)cc1)c1csc(NC(=O)NCc2ccc(N3CCNCC3)c(C(N)=O)c2)n1` [Example A052, 5-((3-(4-(2-(4-bromophenyl)propan-2-yl)thiazol-2-yl)ureido)methyl)-2-(piperazin-1-yl)benzamide], the IC50 against ALPK1 is 24 nM; in assay [1] (Homo sapiens, HEK293) it was 1960 nM.

Regarding `COc1ccc(C(C)(C)c2csc(NC(=O)NCCF)n2)cc1` [Example A021, 1-(2-fluoroethyl)-3-(4-(2-(4-methoxyphenyl)propan-2-yl)thiazol-2-yl)urea], the IC50 against ALPK1 was 104 nM; in assay [1] (Homo sapiens, HEK293), 1390 nM.

Consider `COc1ccc(C(C)(C)c2csc(NC(=O)NCc3ccc(N4CCC(N)C4)nc3)n2)cc1` (centres unmarked) [Example A186, 1-((6-(3-aminopyrrolidin-1-yl)pyridin-3-yl)methyl)-3-(4-(2-(4-methoxyphenyl)propan-2-yl)thiazol-2-yl)urea], for which the IC50 against ALPK1 is 19 nM; in assay [1], 1550 nM.

The values are drawn from US20240109853A1 (Shanghai Yao Yuan Biotechnology Co., Ltd., priority 2020, published 2024).
